The text below walks through data of patent US20080171750A1, “Modulation Of Neurogenesis With Use of Modafinil” (BrainCells, Inc., priority 2007, published 2008).

In one assay the target is mGluR3 (Homo sapiens, UniProt Q14832). Conditions: read-out: IC50 against mGluR3; cited from earlier work.
Assay [1] concerns Group I or Group III receptors. The following applies: at sub-mM concentrations; cited from earlier work.
In a further assay the target is mGluR2 (Homo sapiens, UniProt Q14416). Conditions: read-out: IC50 against mGluR2; cited from earlier work.
For assay [2], the system named is KA, AMPA, and NMDA iGlu receptors. Conditions: cited from earlier work.
The next assay concerns the target human mGlu2 receptors (Homo sapiens, UniProt Q14416). The following applies: low nanomolar range; read-out: EC50 against human mGlu2 receptors in vitro; cited from earlier work.
The target in the next assay is human mGlu3 receptors (Homo sapiens, UniProt Q14832). Conditions: low nanomolar range; read-out: EC50 against human mGlu3 receptors in vitro; cited from earlier work.
In assay [3] the test system is Human neural stem cells (hNSCs). The assay can be described thus: Neuronal differentiation of human neural stem cells (TUJ-1 staining). The class given is cell-based. The following applies: for maximum neuronal differentiation percent of positive control: basal media values subtracted, 0.01 μM to 31.6 μM. As to the method: Mitogen-free test media with a positive control for neuronal differentiation was used along with basal media without growth factors as a negative control.
The presence of synergy was determined by use of a combination index (CI). […] The CI is a quantitative measure of the nature of drug interactions, comparing the EC50's of two compounds, when each is assayed alone, to the EC50 of each compound when assayed in combination. The combination index (CI) is equal to the following formula: […]
where C1 and C2 are the concentrations of a first and a second compound, respectively, resulting in 50% activity in neuronal differentiation when assayed in combination; and IC1 and IC2 are the concentrations of each compound resulting in 50% activity when assayed independently.

Assay [4] shares this test system. The assay can be described thus: Astrocyte differentiation of human neural stem cells (GFAP staining). Format: cell-based.
Where [5] appears, read: Homo sapiens, Neural stem cell, agent alone, concentration response curve 0.01 μM to 31.6 μM (antalarmin to 3.16 μM), modafinil batch of FIG. 1-3, read-out: EC50, neuronal differentiation, agent used alone.
[6] abbreviates: Homo sapiens, Neural stem cell, read-out: EC50, neuronal differentiation, agent alone (FIG. 8 experiment).

Read-outs that look alike come from different tables or passages of the source. Bounds are passed on as bounds.

Chain of mGluR3 (Q14832 23-879): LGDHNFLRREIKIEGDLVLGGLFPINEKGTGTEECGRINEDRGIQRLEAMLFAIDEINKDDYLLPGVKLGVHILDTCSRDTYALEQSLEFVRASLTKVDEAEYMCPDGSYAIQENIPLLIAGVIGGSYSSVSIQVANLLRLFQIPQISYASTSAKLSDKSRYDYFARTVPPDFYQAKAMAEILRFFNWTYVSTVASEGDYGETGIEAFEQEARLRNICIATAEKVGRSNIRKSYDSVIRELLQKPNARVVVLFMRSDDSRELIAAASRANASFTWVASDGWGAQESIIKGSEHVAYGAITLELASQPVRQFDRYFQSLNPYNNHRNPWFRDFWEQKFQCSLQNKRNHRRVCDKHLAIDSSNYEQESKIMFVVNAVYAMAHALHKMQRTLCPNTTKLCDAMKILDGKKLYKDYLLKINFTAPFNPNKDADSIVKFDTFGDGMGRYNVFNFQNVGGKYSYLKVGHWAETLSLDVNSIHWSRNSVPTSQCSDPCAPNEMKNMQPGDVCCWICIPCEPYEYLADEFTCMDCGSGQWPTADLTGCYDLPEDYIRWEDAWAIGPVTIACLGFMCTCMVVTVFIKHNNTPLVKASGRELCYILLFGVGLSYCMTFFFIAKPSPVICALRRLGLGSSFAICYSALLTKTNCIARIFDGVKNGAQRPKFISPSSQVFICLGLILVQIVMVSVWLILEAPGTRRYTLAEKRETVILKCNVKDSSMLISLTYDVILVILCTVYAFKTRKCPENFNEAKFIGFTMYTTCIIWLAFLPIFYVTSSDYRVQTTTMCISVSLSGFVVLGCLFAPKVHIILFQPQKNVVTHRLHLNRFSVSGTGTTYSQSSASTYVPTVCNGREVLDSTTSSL
Chain of human mGlu3 receptors (Q14832 23-879): as above
Chain of mGluR2 (Q14416 19-872): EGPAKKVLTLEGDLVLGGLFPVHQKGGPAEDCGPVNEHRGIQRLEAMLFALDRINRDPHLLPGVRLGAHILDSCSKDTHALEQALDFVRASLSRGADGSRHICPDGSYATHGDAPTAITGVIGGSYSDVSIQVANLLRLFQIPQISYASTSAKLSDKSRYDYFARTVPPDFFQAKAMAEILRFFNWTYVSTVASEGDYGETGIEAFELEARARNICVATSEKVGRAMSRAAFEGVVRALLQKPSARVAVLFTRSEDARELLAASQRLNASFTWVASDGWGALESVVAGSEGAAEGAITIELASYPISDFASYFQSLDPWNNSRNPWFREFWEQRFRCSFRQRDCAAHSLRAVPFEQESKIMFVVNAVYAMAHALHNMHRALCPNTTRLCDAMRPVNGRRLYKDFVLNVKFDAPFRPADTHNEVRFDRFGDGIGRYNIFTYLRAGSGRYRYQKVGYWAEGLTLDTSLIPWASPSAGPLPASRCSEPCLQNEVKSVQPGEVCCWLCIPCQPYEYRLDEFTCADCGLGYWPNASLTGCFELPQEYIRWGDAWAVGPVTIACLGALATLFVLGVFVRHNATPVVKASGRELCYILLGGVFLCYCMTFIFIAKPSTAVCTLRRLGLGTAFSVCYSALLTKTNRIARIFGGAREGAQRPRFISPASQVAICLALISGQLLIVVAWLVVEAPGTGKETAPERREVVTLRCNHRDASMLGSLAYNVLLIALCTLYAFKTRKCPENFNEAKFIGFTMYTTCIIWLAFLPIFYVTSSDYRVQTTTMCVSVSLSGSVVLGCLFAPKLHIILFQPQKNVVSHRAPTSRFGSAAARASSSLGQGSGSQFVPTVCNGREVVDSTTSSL
Chain of human mGlu2 receptors (Q14416 19-872): as above

As a reminder, the IC50 is the concentration at which inhibition is half-maximal. For `NC1(C(=O)O)CCc2cc(P(=O)(O)O)ccc21` (racemic) [APICA, (RS)-1-amino-5-phosphonoindan-1-carboxylic acid], the IC50 on mGluR3 and at mGluR2 was approximately 30 µM each time. The “activity against Group I or Group III receptors” value in assay [1] is recorded as “no appreciable activity”.
Turning to `N[C@](CC1c2ccccc2Oc2ccccc21)(C(=O)O)[C@H]1C[C@@H]1C(=O)O` [LY341495, (2S)-2-amino-2-(1S,2S-2-carboxycycloprop-1-yl)-3-(xanth-9-yl) propanoic acid], the “activity against KA, AMPA, and NMDA iGlu receptors” value in assay [2] is “substantially inactive”.
A word on the EC50: it is the midpoint of the concentration-response curve. Take `N[C@@]1(C(=O)O)CO[C@H]2[C@H](C(=O)O)[C@H]21` [LY379268, (−)-2-Oxa-4-aminobicyclohexane-4,6-dicarboxylic acid]: the EC50 on human mGlu2 receptors and at human mGlu3 receptors was less than 0.01 µM in each case.
In the case of `Cc1oc2nc3c(c(NC(=O)CN4CCCC4=O)c2c1C)CCCC3` [MKC-231], in assay [3] (agent alone, concentration response curve 0.01 μM to 31.6 μM (antalarmin to 3.16 μM), modafinil batch of FIG. 1-3, read-out: EC50, neuronal differentiation, agent used alone), the concentration giving a half-maximal response (EC50) came out at 3.9 µM. In addition, the “maximum neuronal differentiation percent of positive control” value (from here on “maximum neuronal differentiation percent”) in assay [3] stood at 53%.
In the case of `CC(=O)NCCCS(=O)(=O)O` [acamprosate], the EC50 in assay [3] (setting [5]) was approximately 39.2 µM.
Still for that read-out and setting: for `CCCCN(CC)c1nc(C)nc2c1c(C)c(C)n2-c1c(C)cc(C)cc1C` [antalarmin] the value was approximately 34.9 µM.
Regarding `NC(=O)C[S@@+]([O-])C(c1ccccc1)c1ccccc1` [armodafinil, (−)-2-[(R)-(diphenylmethyl)-sulfinyl]acetamide], the EC50 in assay [3] (setting [6]) is approximately 1.24 µM.
On to `CN1C(=O)COc2c(C(=O)NC3CN4CCC3CC4)cc(Cl)cc21` (stereo not shown) [azasetron], for which the EC50 in assay [3] (setting [5]) is approximately 9.1 µM.
For the compound `O=C1CC2(CCCC2)CC(=O)N1CCCCN1CCN(c2ncccn2)CC1` [buspirone], the EC50 in assay [3] (setting [5]) came to 8.4 µM. Besides, the “maximum neuronal differentiation percent” value in assay [3] is on record as 52%. Besides, in assay [4] (basal media values subtracted, 0.01 μM to 31.6 μM), the “maximum astrocyte differentiation percent of positive control” value was 59%.
With `NC(=O)C[S+]([O-])C(c1ccccc1)c1ccccc1` (stereo not shown) [modafinil, 2-benzhydrylsulfinylethanamide], the EC50 is 1.93 µM in assay [3] (setting [6]); more than 31.6 µM in assay [3] (Homo sapiens, Neural stem cell, read-out: EC50, neuronal differentiation, agent used alone); 2.9 µM in assay [3] (Homo sapiens, Neural stem cell, read-out: EC50, neuronal differentiation, modafinil alone (batch 2)); approximately 83 µM in assay [3] (Homo sapiens, Neural stem cell, read-out: EC50 of modafinil alone, estimated based on extrapolation). In assay [3], the “maximum neuronal differentiation percent” value is reported as 19%. In addition, the astrogenesis produced result in assay [4] (modafinil alone) was “little or no astrogenesis”.
Consider `NCCc1c[nH]c2ccc(O)cc12` [serotonin, 5-hydroxytryptamine], for which the EC50 in assay [3] (setting [5]) was approximately 6.9 µM.
